Test results taken from patent US20150282489A1, “SYNERGISTIC FUNGICIDAL COMPOSITIONS CONTAINING LACTOPEROXIDASE SYSTEM” (DSM IP ASSETS B.V., priority 2012, published 2015).

Experiments:
[1] = system: powdery mildew spores (spores of Oidium neolycopersici); assay: Treatment of tomato plants against mildew disease (Example 2, lactoperoxidase system applied first, natamycin after one hour); format: in vivo, Oidium neolycopersici on tomato plants
Method: (§1) Tomato plants were grown in a greenhouse using well known methods. Twenty-five days after planting, the tomato plants were inoculated with powdery mildew spores (spores of Oidium neolycopersici). Fourteen days after the tomato plants were inoculated with the spores, the plants were treated with: All compositions comprising natamycin comprised glycerol (2.5 ml/l ) and polyether trisiloxane (BREAK-TRU®; 0.25 ml/l ). The lactoperoxidase system comprised lactoperoxidase, potassium iodide, potassium thiocyanate and a hydrogen peroxide source. When the lactoperoxidase system was used alone, ADDIT, a rapeseed-oil based adjuvant, was added to the lactoperoxidase system. The tomato plants were sprayed with 2000 lof the respective composition per ha, corresponding to a rate of about 130 ml of the respective composition per plant. The trial was performed on four plots with each plot containing 5 tomato plants. Powdery mildew growth was assessed in a twofold manner: (i) the number of visible colonies on 2 marked leafs of each tomato plant were counted; and (ii) the antifungal activity (in %) of the individual and combined active ingredients was determined by calculating the reduction in mould growth observed on the marked leafs of the tomato plants that were treated with the antifungal composition in comparison to the mould growth on the marked leafs of the tomato plants that were treated with the control composition. The expected antifungal activity (E in %) of the combined antifungal composition comprising both active ingredients was calculated according to the Colby equation (Colby, 1967): E=X+Y−[(X·Y)/100] wherein X and Y are the observed antifungal activities (in %) of the individual active ingredients X and Y, respectively. If the observed antifungal activity (O in %) of the combination exceeds the expected antifungal activity (E in %) of the combination and the synergy factor O/E is thus >1.0, the combined application of the active ingredients leads to a synergistic antifungal effect. The experiment was done as described in Example 1, with the proviso that first of all the lactoperoxidase system was applied to the tomato plants and after one hour (when the tomato plants were dry again) the natamycin composition was applied.

[2] = system: powdery mildew spores (spores of Oidium neolycopersici); assay: Treatment of tomato plants against mildew disease (Example 1, natamycin and lactoperoxidase system mixed before application); format: in vivo, Oidium neolycopersici on tomato plants
Method: as §1, with “with: a) a composition comprising natamycin (1500 ppm), b) a composition comprising a lactoperoxidase system, or c) a composition comprising natamycin (1500 ppm) and a lactoperoxidase system (natamycin and the lactoperoxidase system were mixed before application to the tomato plants). As a control, untreated tomato plants were used.” for “with:”, “effect.” for “effect. The experiment was done as described in Example 1, with the proviso that first of all the lactoperoxidase system was applied to the tomato plants and after one hour (when the tomato plants were dry again) the natamycin composition was applied.”

Structure (SMILES): C[C@@H]1C/C=C/C=C/C=C/C=C/[C@H](O[C@@H]2O[C@H](C)[C@@H](O)[C@H](N)[C@@H]2O)C[C@@H]2O[C@](O)(C[C@@H](O)C[C@H]3O[C@@H]3/C=C/C(=O)O1)C[C@H](O)[C@H]2C(=O)O [Natamcyin, natamycin]
- Change in visible fungal colonies at 9 days after application ([1]; 9 days after application, combination applied sequentially): increase in visible fungal colonies
- Average number of fungal colonies per tomato leaf, Day 9 ([1]; 9 days after application, combination: lactoperoxidase system first, natamycin after one hour): 11.9
- Average number of fungal colonies per tomato leaf, Day −1 ([1]; one day before application (baseline), combination applied sequentially): 6.1
- Average number of fungal colonies per tomato leaf, Day 9 corrected for Day −1 ([1]; positive = increase, negative = decrease from day −1 to day 9, combination applied sequentially): 5.8
- Change in visible fungal colonies at 9 days after application ([2]; 9 days after application of the respective compositions): increase in visible fungal colonies
- Average number of fungal colonies per tomato leaf, Day 9 ([2]; 9 days after application, natamycin 1500 ppm, spray 2000 l/ha): 11.9
- Average number of fungal colonies per tomato leaf, Day −1 ([2]; one day before application of the composition (baseline), natamycin 1500 ppm, spray 2000 l/ha): 6.1
- Average number of fungal colonies per tomato leaf, Day 9 corrected for Day −1 ([2]; positive = increase, negative = decrease from day −1 to day 9, natamycin 1500 ppm): 5.8
